Experimental data reported in patent US7420031B2, “Intracellular delivery of small molecules, proteins, and nucleic acids” (Lonza Walkersville, Inc., priority 2003, dated 2008).
Where a SMILES comes first, the peptide text is derived from it. Where no end group is shown, it is not given here. The star is where a group is joined. Biotin = O=C1N[C@H]2[C@H](CS[C@H]2CCCCC(=O)*)N1

Experiments:
NIH 3T3 cells [1] = conditions: 20 nM complex with streptavidin-linked β-galactosidase, 1 hour at 37° C.
Method: To determine the intracellular location of the complex, cells were immunostained for streptavidin. NIH 3T3 cells were seeded into 24-well tissue culture plates and incubated overnight. The cells were treated with 20 nM PTD-cargo moiety complex comprising the polypeptide sequence shown in SEQ ID NO:14 and streptavidin-linked β-galactosidase for 1 hour at 37° C. The cells were washed 3 times with PBS, and non-specific binding was blocked by a 30 minute incubation with normal goat serum at room temperature. Mouse anti-streptavidin monoclonal antibody (Monosan, Catalog No. 5043) was diluted to 1 μg/ml with PBS containing 20% normal goat serum. The diluted monoclonal antibody was added to the cells, and the cells were incubated for 1 hour at room temperature.
The cells were washed 3 times with PBS and a secondary Alexa Fluor 568 conjugated goat anti-mouse IgG (Molecular Probes, Catalog No. A-11019) was diluted 1:200 in PBS with 20% normal goat serum. Following a 30 minute incubation at room temperature, the cells were washed 3 times with PBS and visualized by fluorescent microscopy.

plasma membrane = conditions: Wender et al., Proc. Natl. Acad. Sci USA 97:13003-13008, 2000; cited from earlier work
human dermal fibroblasts = assay: Histochemical staining for β-galactosidase in cells transduced with PTD complex; format: cell-based; conditions: 50 nM complex with streptavidin-β-galactosidase, 1 hour at 37° C., light microscopy
Method: To determine the efficiency of transduction based on the percentage of cells that receive the reporter protein, cells were assayed by histochemical staining for the reporter protein.
HUVEC and human dermal fibroblast cells were each seeded at 40,000 per well of a 24-well plate and incubated overnight. PTD complexes (SEQ ID NO:7-streptavidin-β-galactosidase or SEQ ID NO:6-streptavidin-β-galactosidase) were added to the wells at a final concentration of 50 nM and incubated for 1 hour at 37° C. The cells were washed 3 times in PBS, fixed, and stained for β-galactosidase using a β-galactosidase staining set (Roche) according to the manufacturer's instructions. Following development of β-galactosidase activity, the cells were washed with PBS and visualized by light microscopy.

NIH 3T3 cells [2] = conditions: PTD without cargo moiety, 0-1000 nM (nanomolar range), 48 hours
Method: PTDs (SEQ ID NOS:7 and 10), in the absence of a cargo moiety, were added to NIH 3T3 cultures at final concentrations ranging from 0-1000 nM to determine if the PTDs were cytotoxic. NIH 3T3 cells were seeded and incubated overnight, and the peptides were added to the cultures. The cells were incubated for 48 hours, and cell viability was determined using an Alamar blue assay.

[3] = Mi et al., Mol. Ther., 2:339-347, 2000; cited from earlier work
NIH 3T3 cells [4] = assay: PTD-β-galactosidase transduction into NIH 3T3 cells (lysate absorbance at 405 nm); format: cell-based; conditions: general statement in description
Method: N-terminally biotinylated direct and inverted isomers were compared to determine the transduction efficiency of inverted isomers of PTDs. PTDs and β-galactosidase were complexed together with a streptavidin-biotin bridge. NIH 3T3 cells were seeded into a 96-well plate and incubated as described above. The PTD-β-galactosidase complexes were formed (as described in Example 1) and added to a final concentration of 12.5 nM. […] The lysis reaction was stopped and the absorbance at 405 nm was measured. The transduction activity of inverted isomers is stronger than the transduction activity of direct PTDs.
The activities of 2 PTDs were compared to determine if the introduction of a lysine residue juxtaposed to the biotin moiety affects transduction activity. The pairs of peptides differed by a glycine to lysine substitution within the biotin peptide linker. PTDs and β-galactosidase were complexed together with a streptavidin-biotin bridge. NIH 3T3 cells were seeded as described above. […] The lysis reaction was stopped, and the absorbance at 405 nm was measured. The presence of a lysine residue juxtaposed to the biotin caused about a two-fold enhancement in transduction activity.
To further study the role of the lysine residue located in the biotin linker, the indirect PTDs and the direct PTDs with a lysine residue in the linker were compared. […]

293 HEK cells = assay: PTD-mediated transport of streptavidin-β-galactosidase into 293 HEK cells (lysate absorbance at 405 nm); format: cell-based; conditions: 50 nM complex with streptavidin-β-galactosidase, 30 minutes at 37° C.
Method: To determine the effect of biotin location on transduction efficiency, biotin was added to either the amino terminus or the carboxy terminus of three PTDs. A (Gly)3 linker was added to the amino terminus for N-terminal biotinylated peptides. For C-terminal biotinylation, the last glycine in the C-terminal linker was replaced by lysine. The side chain of lysine was used for the attachment of the biotin group. A peptide with negligible transduction activity (Mi et al., Mol. Ther., 2:339-347, 2000) (SEQ ID NO:6) was used as a negative control. PTDs and β-galactosidase were complexed together with a streptavidin-biotin bridge.
To test for transduction efficiency, 293 HEK cells were seeded into a 96-well plate at approximately 4500 cells/well and incubated overnight. To prepare peptide complexes, equimolar concentrations of biotinylated PTD and streptavidin-crosslinked β-galactosidase were mixed and diluted in cell culture medium. The mixtures were incubated for 30 minutes at 37° C. to allow formation of complexes. Each complex was added to a final concentration of 50 nM and incubated for 30 minutes at 37° C. To assay for β-galactosidase activity, the cells were washed 3 times with PBS and were lysed with 100 μl of assay reagent (Pierce). […] The absorbance at 405 nm was measured on a Wallac Victor spectroluminometer.

NIH 3T3 cells [5] = conditions: 20 nM complex with streptavidin-β-galactosidase, 1 hour at 37° C.
Method: The transport activities of PTDs were compared to determine if introduction of a nuclear localization signal affect translocation of a PTD-cargo moiety complex. The cargo moiety was streptavidin-linked β-galactosidase. The cargo moiety was streptavidin-linked β-galactosidase. The peptides differed by the position of the nuclear localization signal. The nuclear localization signal was located on the amino terminus (down-stream of a lysine linker) or the carboxy terminus. NIH 3T3 cells were seeded as described above. Each PTD complex was added to a final concentration of 20 nM, and the cells were incubated for 1 hour at 37° C. Following incubation, the cells were washed 3 times in PBS and assayed for nuclear localization of β-galactosidase. β-galactosidase activity was measured at 405 nm in a colorimetric assay.
Peptides containing two nuclear localization signals were tested to study the role of the multiple nuclear localization signals on peptide transport. NIH 3T3 cells were seeded as described above. A PTD-β-galactosidase complex was added to a final concentration of 20 nM, and the cells were incubated for 1 hour at 37° C. Following incubation, the cells were washed 3 times in PBS and assayed for nuclear localization of β-galactosidase.

## Biotin-KGGRKMLKSTRRQRR [SEQ ID NO:14]
NIH 3T3 cells [1]
  intracellular location of the complex: localized to the cytoplasm

## SEQ ID NO:23: a reverse isomer of a tat-derived peptide (reverse tat), Wender et al. (RRRQRRKKRGY; Human immunodeficiency virus)
Plasma membrane
  efficiency of crossing the plasma membrane relative to tat (SEQ ID NO:24): about three times

## Biotin-Gly-Gly-Gly-Tyr-Gly-Arg-Lys-Lys-Arg-Arg-Gln-Arg-Arg-Arg [SEQ ID NO:7]
Human dermal fibroblasts
  β-galactosidase reporter protein staining of cells: positive

## CSCC[C@H](NC(=O)[C@H](CC(C)C)NC(=O)[C@H](CCCCN)NC(=O)[C@H](CO)NC(=O)[C@@H](NC(=O)[C@H](CCCNC(=N)N)NC(=O)[C@H](CCCNC(=N)N)NC(=O)[C@H](CCC(N)=O)NC(=O)[C@H](CCCNC(=N)N)NC(=O)[C@@H](N)CCCNC(=N)N)[C@@H](C)O)C(=O)N[C@@H](CCCCN)C(=O)N[C@@H](CCCNC(=N)N)C(=O)NCC(=O)NCC(=O)N[C@@H](CCCCNC(=O)CCCC[C@@H]1SC[C@@H]2NC(=O)N[C@@H]21)C(=O)O [SEQ ID NO:11, Arg-Arg-Gln-Arg-Arg-Thr-Ser-Lys-Leu-Met-Lys-Arg-Gly-Gly-Lys-Biotin] (H-RRQRRTSKLMKRGGK(Biotin)-OH)
NIH 3T3 cells [2]
  effect on cell growth / cell viability: did not inhibit cell growth

## Biotin-GGARPLEHGSDKAT [SEQ ID NO:6]
[3]
  transduction activity: negligible

## N=C(N)NCCC[C@H](NC(=O)CNC(=O)[C@@H](N)Cc1ccc(O)cc1)C(=O)N[C@@H](CCCCN)C(=O)N[C@@H](CCCCN)C(=O)N[C@@H](CCCNC(=N)N)C(=O)N[C@@H](CCCNC(=N)N)C(=O)N[C@@H](CCC(N)=O)C(=O)N[C@@H](CCCNC(=N)N)C(=O)N[C@@H](CCCNC(=N)N)C(=O)N[C@@H](CCCNC(=N)N)C(=O)NCC(=O)NCC(=O)N[C@@H](CCCCNC(=O)CCCC[C@@H]1SC[C@@H]2NC(=O)N[C@@H]21)C(=O)O [SEQ ID NO:8, Tyr-Gly-Arg-Lys-Lys-Arg-Arg-Gln-Arg-Arg-Arg-Gly-Gly-Lys-Biotin]
NIH 3T3 cells [2]
  effect on cell growth / cell viability: did not inhibit cell growth

## RKMLKSTRRQRR [SEQ ID NO:1]
NIH 3T3 cells [4]
  ability to function as a PTD relative to tat (SEQ ID NO:24) and WO 01/15511 peptide (SEQ ID NO:25): more efficiently

## Biotin-GGGYARAAARQARA [SEQ ID NO:9]
293 HEK cells
  function as a PTD (amount of β-galactosidase in the cell lysate vs negative control SEQ ID NO:6): did not function as a PTD

## Biotin-KGGRKMLKSTRRQRRKKKRKV [SEQ ID NO:19]
NIH 3T3 cells [5]
  translocation of the complex, effect of nuclear localization signal and its position: functioned much better
